Results as given in paper PMC6979384, “Characterization of the plant homeodomain (PHD) reader family for their histone tail interactions” (Epigenetics & Chromatin, 2020).

Experiments:
Test in all cases: Histone peptide microarray
Assay type in all cases: binding, human
[1] = tested on: AIRE (PP); conditions: GST-tagged AIRE (PP); histone peptide array; arrays performed twice, n of 4
Summary of the method: (§1)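 Recombinant GST-PHD protein at 0.5 μM; 293-member modified histone peptide array; signals averaged from four repeats ± SD.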

[2] = tested on: BAZ2B; conditions: GST-tagged BAZ2B; histone peptide array; arrays performed twice, n of 4
Summary of the method: as §1

[3] = tested on: BPTF (PB); conditions: GST-tagged BPTF (PB = PHD + Bromodomain); histone peptide array; arrays performed twice, n of 4
Summary of the method: as §1

[4] = tested on: CHD4 (PPCC); conditions: GST-tagged CHD4 (PPCC = Dual PHD + Dual Chromodomain); histone peptide array; arrays performed twice, n of 4
Summary of the method: as §1

[5] = tested on: CHD5 (PCC); conditions: GST-tagged CHD5 (PCC = PHD + Dual Chromodomain); histone peptide array; arrays performed twice, n of 4
Summary of the method: as §1

[6] = tested on: CHD5 (PPCC); conditions: GST-tagged CHD5 (PPCC = Dual PHD + Dual Chromodomain); histone peptide array; arrays performed twice, n of 4
Summary of the method: as §1

[7] = tested on: DIDO1; conditions: GST-tagged DIDO1; histone peptide array; arrays performed twice, n of 4
Summary of the method: as §1

[8] = tested on: DPF2 (PPC2W2); conditions: GST-tagged DPF2 (PPC2W2 = Dual PHD + C2W2-type Zn-finger); histone peptide array; arrays performed twice, n of 4
Summary of the method: as §1

[9] = tested on: ING1; conditions: GST-tagged ING1; histone peptide array; arrays performed twice, n of 4
Summary of the method: as §1

[10] = tested on: ING2; conditions: GST-tagged ING2; histone peptide array; arrays performed twice, n of 4
Summary of the method: as §1

[11] = tested on: ING3; conditions: GST-tagged ING3; histone peptide array; arrays performed twice, n of 4
Summary of the method: as §1

[12] = tested on: ING4; conditions: GST-tagged ING4; histone peptide array; arrays performed twice, n of 4
Summary of the method: as §1

[13] = tested on: ING5; conditions: GST-tagged ING5; histone peptide array; arrays performed twice, n of 4
Summary of the method: as §1

[14] = tested on: KDM4C (TTP); conditions: GST-tagged KDM4C (TTP = Tandem Tudor domain + PHD); histone peptide array; arrays performed twice, n of 4
Summary of the method: as §1

[15] = tested on: KDM5A (1); conditions: GST-tagged KDM5A (1); histone peptide array; arrays performed twice, n of 4
Summary of the method: as §1

[16] = tested on: KDM5A (3); conditions: GST-tagged KDM5A (3); histone peptide array; arrays performed twice, n of 4
Summary of the method: as §1

[17] = tested on: KDM5B (1); conditions: GST-tagged KDM5B (1); histone peptide array; arrays performed twice, n of 4
Summary of the method: as §1

[18] = tested on: KDM5B (3); conditions: GST-tagged KDM5B (3); histone peptide array; arrays performed twice, n of 4
Summary of the method: as §1

[19] = tested on: KDM7A; conditions: GST-tagged KDM7A; histone peptide array; arrays performed twice, n of 4
Summary of the method: as §1

[20] = tested on: MLL5; conditions: GST-tagged MLL5; histone peptide array; arrays performed twice, n of 4
Summary of the method: as §1

[21] = tested on: MORC3 (CW); conditions: GST-tagged MORC3 (CW = CW-type Zn-finger); histone peptide array; arrays performed twice, n of 4
Summary of the method: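 Steps: express and purify GST-tagged PHD reader; incubate 0.5 μM protein on a peptide microarray (293 histone peptides, single or combined PTMs) following an optimized protocol; average signal across 4 replicates.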

[22] = tested on: PHF13; conditions: GST-tagged PHF13; histone peptide array; arrays performed twice, n of 4
Summary of the method: as §1

[23] = tested on: PHF21A; conditions: GST-tagged PHF21A; histone peptide array; arrays performed twice, n of 4
Summary of the method: as §1

[24] = tested on: PHF23; conditions: GST-tagged PHF23; histone peptide array; arrays performed twice, n of 4
Summary of the method: as §1

[25] = tested on: PHF2; conditions: GST-tagged PHF2; histone peptide array; arrays performed twice, n of 4
Summary of the method: as §1

[26] = tested on: PHF8; conditions: GST-tagged PHF8; histone peptide array; arrays performed twice, n of 4
Summary of the method: as §1

[27] = tested on: PHRF1 (RP); conditions: GST-tagged PHRF1 (RP); histone peptide array; arrays performed twice, n of 4
Summary of the method: as §1

[28] = tested on: RAG2; conditions: GST-tagged RAG2; histone peptide array; arrays performed twice, n of 4
Summary of the method: as §1

[29] = tested on: SP140L; conditions: GST-tagged SP140L; histone peptide array; arrays performed twice, n of 4
Summary of the method: as §1

[30] = tested on: TAF3; conditions: GST-tagged TAF3; histone peptide array; arrays performed twice, n of 4
Summary of the method: as §1

[31] = tested on: TRIM66 (PB); conditions: GST-tagged TRIM66 (PB = PHD + Bromodomain); histone peptide array; arrays performed twice, n of 4
Summary of the method: as §1

Row | Substance | Array Heatmap signal, AIRE (PP) [1] | Array Heatmap signal, BAZ2B [2] | Array Heatmap signal, BPTF (PB) [3] | Array Heatmap signal, CHD4 (PPCC) [4] | Array Heatmap signal, CHD5 (PCC) [5] | Array Heatmap signal, CHD5 (PPCC) [6] | Array Heatmap signal, DIDO1 [7] | Array Heatmap signal, DPF2 (PPC2W2) [8] | Array Heatmap signal, ING1 [9] | Array Heatmap signal, ING2 [10] | Array Heatmap signal, ING3 [11] | Array Heatmap signal, ING4 [12] | Array Heatmap signal, ING5 [13] | Array Heatmap signal, KDM4C (TTP) [14] | Array Heatmap signal, KDM5A (1) [15] | Array Heatmap signal, KDM5A (3) [16] | Array Heatmap signal, KDM5B (1) [17] | Array Heatmap signal, KDM5B (3) [18] | Array Heatmap signal, KDM7A [19] | Array Heatmap signal, MLL5 [20] | other results
1 | H3R2me1 + K4me2: H3 1-20 | 0.3934 | 0.4449 | 0.3634 | 0.6115 | 0.8739 | 0.5419 | 0.7623 | 0.7133 | 0.6158 | 0.678 | 0.5383 | 0.4775 | 0.3522 | 0.4903 | 0.4465 | 0.6755 | 0.6024 | 0.6308 | 0.344 | 0.577 | Array Heatmap signal, MORC3 (CW) [21]: 0.6321; Array Heatmap signal, PHF13 [22]: 0.6859; Array Heatmap signal, PHF21A [23]: 0.4826; Array Heatmap signal, PHF23 [24]: 0.6929; Array Heatmap signal, PHF2 [25]: 0.6699; Array Heatmap signal, PHF8 [26]: 0.4684; Array Heatmap signal, PHRF1 (RP) [27]: 0.5537; Array Heatmap signal, RAG2 [28]: 0.5456; Array Heatmap signal, SP140L [29]: 0.3804; Array Heatmap signal, TAF3 [30]: 0.4954; Array Heatmap signal, TRIM66 (PB) [31]: 0.6589
2 | H3R2me1 + K4me3 + K9ac + K14ac + K18ac: H3 1-20 | 0.4342 | 0.5242 | 0.497 | 0.5338 | 0.7637 | 0.5534 | 0.9369 | 0.7016 | 0.6321 | 0.7542 | 0.5459 | 0.4735 | 0.3861 | 0.6022 | 0.4772 | 1 | 0.6999 | 0.6033 | 0.4977 | 0.7798 | Array Heatmap signal, MORC3 (CW) [21]: 0.7963; Array Heatmap signal, PHF13 [22]: 0.6575; Array Heatmap signal, PHF21A [23]: 0.4576; Array Heatmap signal, PHF23 [24]: 0.7743; Array Heatmap signal, PHF2 [25]: 0.7659; Array Heatmap signal, PHF8 [26]: 0.711; Array Heatmap signal, PHRF1 (RP) [27]: 0.4594; Array Heatmap signal, RAG2 [28]: 0.5848; Array Heatmap signal, SP140L [29]: 0.3363; Array Heatmap signal, TAF3 [30]: 0.3972; Array Heatmap signal, TRIM66 (PB) [31]: 0.5379
3 | H3R2me1 + K4me3: H3 1-20 | 0.5251 | 0.4816 | 0.4045 | 0.5344 | 0.789 | 0.5498 | 0.7532 | 0.645 | 0.6223 | 0.6934 | 0.5249 | 0.4768 | 0.3615 | 0.6626 | 0.4891 | 0.7567 | 0.7101 | 0.6417 | 0.6442 | 0.6848 | Array Heatmap signal, MORC3 (CW) [21]: 0.559; Array Heatmap signal, PHF13 [22]: 0.6851; Array Heatmap signal, PHF21A [23]: 0.4726; Array Heatmap signal, PHF23 [24]: 0.6587; Array Heatmap signal, PHF2 [25]: 0.6232; Array Heatmap signal, PHF8 [26]: 0.5511; Array Heatmap signal, PHRF1 (RP) [27]: 0.4461; Array Heatmap signal, RAG2 [28]: 0.5131; Array Heatmap signal, SP140L [29]: 0.3558; Array Heatmap signal, TAF3 [30]: 0.4375; Array Heatmap signal, TRIM66 (PB) [31]: 0.573
4 | H3R2me2a + K4ac + K9ac + K14ac + K18ac: H3 1-20 | 0.481 | 0.5184 | 0.3551 | 0.5562 | 0.8359 | 0.5571 | 0.6585 | 0.6307 | 0.488 | 0.5976 | 0.5009 | 0.4485 | 0.3422 | 0.4988 | 0.4917 | 0.405 | 0.6453 | 0.4924 | 0.4047 | 0.5333 | Array Heatmap signal, MORC3 (CW) [21]: 0.3697; Array Heatmap signal, PHF13 [22]: 0.6029; Array Heatmap signal, PHF21A [23]: 0.4733; Array Heatmap signal, PHF23 [24]: 0.5405; Array Heatmap signal, PHF2 [25]: 0.4783; Array Heatmap signal, PHF8 [26]: 0.3535; Array Heatmap signal, PHRF1 (RP) [27]: 0.4078; Array Heatmap signal, RAG2 [28]: 0.259; Array Heatmap signal, SP140L [29]: 0.3281; Array Heatmap signal, TAF3 [30]: 0.2624; Array Heatmap signal, TRIM66 (PB) [31]: 0.5934
